Our source for the activation values is US9040544B2, “2,5-substituted oxazolopyrimidine derivatives” (Sanofi, priority 2010, dated 2015).

T1 sequence (P21453 whole entry): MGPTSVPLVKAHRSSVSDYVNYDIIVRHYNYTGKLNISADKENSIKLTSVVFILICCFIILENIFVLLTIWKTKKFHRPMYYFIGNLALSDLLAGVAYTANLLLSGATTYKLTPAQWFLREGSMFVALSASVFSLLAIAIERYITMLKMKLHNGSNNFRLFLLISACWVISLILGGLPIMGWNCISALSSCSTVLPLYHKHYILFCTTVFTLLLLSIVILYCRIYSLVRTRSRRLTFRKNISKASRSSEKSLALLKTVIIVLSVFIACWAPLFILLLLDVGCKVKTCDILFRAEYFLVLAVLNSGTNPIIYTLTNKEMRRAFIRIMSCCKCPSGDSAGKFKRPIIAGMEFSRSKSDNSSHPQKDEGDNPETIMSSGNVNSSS

This experiment concerns the target T1, human Edg-1 receptor (Homo sapiens, UniProt P21453).
T1 construct: expressed in transfected cells; host or cells: Flp-In-CHO cells, stably transfected; membrane preparation
The experiment is described as follows: GTP-γ-S assay using human Edg-1 receptors (scintillation proximity assay, CHO Flp-In cell membrane preparation). The settings on record: test compound at 10 μM; 10 μM S1P regarded as 100% activation; background-corrected; triplicate; read-out: % Activation (Edg-1 receptor activation in percent of the activation by 10 μM S1P). The format is biochemical. The source says:
A) GTP-γ-S assay using human Edg-1 receptors
In order to determine the Edg-1 receptor activation by the compounds of the invention, a GTP-γ-S (guanosine 5′-[thio]triphosphate) assay for G-protein coupled receptor binding based on the scintillation proximity assay principle was used, employing a cell membrane preparation from a CHO Flp-In cell line which constitutively overexpresses the human Edg-1 receptor.
(a) Cell line generation The Flp-In™ expression system (Invitrogen, cat. no. K6010-01) allows the generation of stable mammalian cell lines into which the gene of interest has been integrated through homologous recombination at a specific genomic location called Flp Recombination Target (FRT) site by means of a Flp recombinase encoded by the pOG44 expression plasmid. The integration of the pcDNA5/FRT expression construct into the Flp-In host cell line genome results in the transcription of the gene of interest. The stably transfected cells become hygromycin-resistant.
One day prior to transfection, 200 000 Flp-In-CHO cells were seeded in Ham F-12 medium (Invitrogen, cat. no. 31765) supplemented with 10% fetal calf serum (FCS; Perbio Science, cat. no. SH30068.03) in a 6-well plate and incubated at 37° C./5% CO2 overnight. Using the FuGENE® 6 transfection reagent (Roche, cat. no. 11988387001), cells were cotransfected with the Flp recombinase expression plasmid pOG44 and a modified plasmid additionally containing the edg-1 gene (accession no. NM_001400) termed as pcDNA5-FRT-TO_nFLAG_DEST-EDG-1 with a 9:1 ratio. To obtain the modified pcDNA5-FRT-TO_nFLAG_DEST plasmid, the Invitrogen plasmid pcDNA5/FRT/TO (Invitrogen, cat. no. V6520-20) was adapted to the Gateway® (Invitrogen) cloning system by inserting a Gateway cassette containing attR recombination sites flanking a ccdB gene and a chloramphenicol-resistance gene (Gateway conversion system, Invitrogen, cat. no. 11828-029). In addition a FLAG tag epitope was added before the 5′ att recombination site to allow recombinant expression of N-terminally FLAG-tagged proteins.
For the transfection of one well, 1.08 μg of pOG44 and 0.12 μg of pcDNA5-FRT-TO_nFLAG_DEST-EDG-1 were mixed to 100 μl of serum-free Ham F-12 medium containing 6 μl of FuGENE® 6 transfection reagent. After 20 min of incubation, the transfection reagent/DNA complex was distributed dropwise on the cells. The cells were incubated for 24 h at 37° C. Then the cells from 3 wells were transferred to a T75 flask (Greiner Cellstar®, cat. no. 658175) containing Ham F-12 medium supplemented with 10% of FCS but without antibiotic and were incubated another 24 h. 48 h after transfection, the medium was replaced by selection medium (Ham F-12 supplemented with 10% of FCS and 300 μg/ml of hygromycin B (Invitrogen, cat. no. 10687-010)). The medium was exchanged every 2 to 3 days until a resistant population of cells had grown. […] After 2 weeks of selection, the cells were transferred into T175 flasks (Greiner Cellstar®, cat. no. 660175) and cultivated for batch production. Cells were harvested from the culture flasks by short treatment (2 to 5 min) with Accutase (PAA, cat. no. L11-007), resuspended in selection medium (see above) and centrifuged at 200×g for 5 min. Cells were resuspended in a mixture of 90% of FCS and 10% of dimethylsulfoxide and stored frozen in liquid nitrogen.
A membrane preparation was obtained by standard methods from the afore-described CHO Flp-ln cell line constitutively overexpressing the human Edg-1 receptor. Briefly, the cryopreserved cells were taken in culture and grown until confluency in T175 cell culture flasks (Becton Dickinson, cat. no. 35 5001). […]
On the technique in general: In a scintillation proximity assay essentially only radioactivity close to the scintillant gives light.
As to `COc1c(C)cc(-c2nc3cnc(Oc4ccccc4F)nc3o2)cc1C` [Example 1, 5-(2-Fluoro-phenoxy)-2-(4-methoxy-3,5-dimethyl-phenyl)-oxazolo[5,4-d]pyrimidine], the activation at 10 µM turned out to be 102%.

As to `Cc1cc(-c2nc3cnc(Oc4ccccc4F)nc3o2)cc(C)c1O` [Example 2, 4-[5-(2-Fluoro-phenoxy)-oxazolo[5,4-d]pyrimidin-2-yl]-2,6-dimethyl-phenol], the activation at 10 µM was 115%.

For the molecule `COc1cccc(-c2nc3cnc(Oc4ccccc4F)nc3o2)c1` [Example 3, 5-(2-fluoro-phenoxy)-2-(3-methoxy-phenyl)-oxazolo[5,4-d]pyrimidine], the activation at 10 µM was 95%.

`Oc1ccc(-c2nc3cnc(Oc4ccccc4F)nc3o2)cc1` [Example 4, 4-[5-(2-fluoro-phenoxy)-oxazolo[5,4-d]pyrimidin-2-yl]-phenol]: the activation at 10 µM worked out at 83%.

With `COc1ccc(-c2nc3cnc(Oc4ccccc4F)nc3o2)cc1C` [Example 5, 5-(2-fluoro-phenoxy)-2-(4-methoxy-3-methyl-phenyl)-oxazolo[5,4-d]pyrimidine], the activation at 10 µM was found to be 42%.

As to `COc1ccc(-c2nc3cnc(Oc4ccccc4F)nc3o2)cc1C(F)(F)F` [Example 6, 5-(2-fluoro-phenoxy)-2-(4-methoxy-3-trifluoromethyl-phenyl)-oxazolo[5,4-d]pyrimidine], the activation at 10 µM was found to be 87%.

Regarding `Cc1cc(-c2nc3cnc(Oc4ccccc4F)nc3o2)ccc1O` [Example 7, 4-[5-(2-fluoro-phenoxy)-oxazolo[5,4-d]pyrimidin-2-yl]-2-methyl-phenol], the activation at 10 µM was found to be 115%.

For the molecule `COc1c(C)cc(-c2nc3cnc(Oc4ccccc4)nc3o2)cc1C` [Example 8, 2-(4-methoxy-3,5-dimethyl-phenyl)-5-phenoxy-oxazolo[5,4-d]pyrimidine], the activation at 10 µM is 94%.

For the molecule `COc1c(C)cc(-c2nc3cnc(Oc4cccnc4)nc3o2)cc1C` [Example 9, 2-(4-methoxy-3,5-dimethyl-phenyl)-5-(pyridin-3-yloxy)-oxazolo[5,4-d]pyrimidine], the activation at 10 µM is 87%.

On to `Oc1ccc(-c2nc3cnc(Oc4ccccc4F)nc3o2)cc1C(F)(F)F` [Example 10, 4-[5-(2-fluoro-phenoxy)-oxazolo[5,4-d]pyrimidin-2-yl]-2-trifluoromethyl-phenol], for which the activation at 10 µM is 107%.

On to `Cc1cc(-c2nc3cnc(Oc4cccnc4)nc3o2)cc(C)c1O` [Example 11, 2,6-dimethyl-4-[5-(pyridin-3-yloxy)-oxazolo[5,4-d]pyrimidin-2-yl]-phenol], for which the activation at 10 µM amounted to 103%.

Regarding `Cc1cc(-c2nc3cnc(Oc4cccc(F)c4)nc3o2)cc(C(C)C)c1O` [Example 12, 4-[5-(3-fluorophenoxy)-oxazolo[5,4-d]pyrimidin-2-yl]-2-isopropyl-6-methyl-phenol], the activation at 10 µM stood at 112%.

As for `Cc1cc(-c2nc3cnc(Oc4ccccc4F)nc3o2)ccc1S(C)(=O)=O` [Example 13, 5-(2-fluorophenoxy)-2-(4-methanesulfonyl-3-methylphenyl)-oxazolo[5,4-d]pyrimidine], the activation at 10 µM came to 120%.

In the case of `Cc1cc(S(C)(=O)=O)ccc1-c1nc2cnc(Oc3ccccc3F)nc2o1` [Example 14, 5-(2-fluorophenoxy)-2-(4-methanesulfonyl-2-methylphenyl)-oxazolo[5,4-d]pyrimidine], the activation at 10 µM was determined as 69%.
